Experimental findings from US7417054B2, “Naphthyridine compounds” (Janssen Pharmaceutica N.V., priority 2005, dated 2008) are described below.

In assay [1] the target is T1, human H3 receptor (Homo sapiens, UniProt Q9Y5N1).
T1 construct: expressed in transfected cells; host or cells: SK-N-MC cells
The experiment in a line: Cyclic AMP accumulation, β-galactosidase reporter in SK-N-MC cells. As to conditions: read-out: pA2 (converted). Type of assay: cell-based. Here is the method:
Sublines of SK-N-MC cells were created that expressed a reporter construct and the human H3 receptor. The reporter gene (β-galactosidase) is under the control of multiple cyclic AMP responsive elements. In 96-well plates, histamine was added directly to the cell media followed 5 min later by an addition of forskolin (5 μM final concentration). When appropriate, antagonists were added 10 min prior to agonist addition. After a 6-h incubation at 37° C., the media was aspirated and the cells washed with 200 μL of phosphate-buffered saline followed by a second aspiration. Cells were lysed with 25 μL 0.1× assay buffer (10 mM Na-phosphate, pH 8, 0.2 mM MgSO4, 0.01 mM MnCl2) and incubated at rt for 10 min. Cells were then incubated for 10 min with 100 μL of 1× assay buffer containing 0.5% Triton and 40 mM β-mercaptoethanol. Color was developed using 25 μL of 1 mg/mL substrate solution (chlorophenolred β-D galactopyranoside; Roche Molecular Biochemicals, Indianapolis, Ind.) Color was quantitated on a microplate reader at absorbance 570 nm.

For assay [2], the target named is T1, human H3 receptor. Nature of the assay: H3 receptor binding, N-[3H]-α-methylhistamine displacement on SK-N-MC cell membranes. To be noted: cloned human H3 receptor in SK-N-MC cell membranes; 0.8 nM N-[3H]-α-methylhistamine; 60 min at 25° C.
Assay [3] deals with T2, human SERT (Homo sapiens, UniProt P31645).
T2 construct: expressed in transfected cells; host or cells: HEK293
T2 sequence (P31645 whole entry): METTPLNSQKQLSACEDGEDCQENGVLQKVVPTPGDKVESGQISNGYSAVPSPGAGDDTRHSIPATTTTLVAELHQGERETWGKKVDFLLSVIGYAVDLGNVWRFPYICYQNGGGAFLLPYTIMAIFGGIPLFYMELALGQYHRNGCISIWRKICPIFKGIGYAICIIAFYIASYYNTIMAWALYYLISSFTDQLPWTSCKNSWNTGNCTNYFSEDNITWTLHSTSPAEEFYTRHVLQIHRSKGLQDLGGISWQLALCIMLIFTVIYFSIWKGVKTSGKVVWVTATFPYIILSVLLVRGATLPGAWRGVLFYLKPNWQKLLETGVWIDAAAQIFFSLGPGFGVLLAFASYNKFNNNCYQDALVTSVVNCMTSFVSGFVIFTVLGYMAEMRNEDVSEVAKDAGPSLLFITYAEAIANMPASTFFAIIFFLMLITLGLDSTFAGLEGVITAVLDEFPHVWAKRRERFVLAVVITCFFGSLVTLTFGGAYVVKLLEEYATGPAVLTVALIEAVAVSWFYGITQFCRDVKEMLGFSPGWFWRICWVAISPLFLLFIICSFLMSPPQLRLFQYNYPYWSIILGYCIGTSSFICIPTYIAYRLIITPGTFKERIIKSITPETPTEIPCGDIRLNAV
The experiment in a line: Human SERT binding, 3H-citalopram displacement on HEK293 membranes. To be noted: HEK293 membranes expressing the human SERT, rt for 1 h. Here is the method:
Homogenized HEK293 (Human Embryonic Kidney) membranes expressing the human SERT were incubated with ^3H-citalopram (SERT) at rt for 1 h in 50 mM Tris, 120 mM NaCl, 5 mM KCl (pH 7.4). […] The membranes were washed and the radioactivity was counted as above.

In assay [4] the target is Rat SERT (Rattus norvegicus, UniProt P31652). The experiment in a line: Rat brain SERT binding, [3H]-Citalopram displacement on rat brain membranes.
Sequence of Rat SERT (P31652 whole entry): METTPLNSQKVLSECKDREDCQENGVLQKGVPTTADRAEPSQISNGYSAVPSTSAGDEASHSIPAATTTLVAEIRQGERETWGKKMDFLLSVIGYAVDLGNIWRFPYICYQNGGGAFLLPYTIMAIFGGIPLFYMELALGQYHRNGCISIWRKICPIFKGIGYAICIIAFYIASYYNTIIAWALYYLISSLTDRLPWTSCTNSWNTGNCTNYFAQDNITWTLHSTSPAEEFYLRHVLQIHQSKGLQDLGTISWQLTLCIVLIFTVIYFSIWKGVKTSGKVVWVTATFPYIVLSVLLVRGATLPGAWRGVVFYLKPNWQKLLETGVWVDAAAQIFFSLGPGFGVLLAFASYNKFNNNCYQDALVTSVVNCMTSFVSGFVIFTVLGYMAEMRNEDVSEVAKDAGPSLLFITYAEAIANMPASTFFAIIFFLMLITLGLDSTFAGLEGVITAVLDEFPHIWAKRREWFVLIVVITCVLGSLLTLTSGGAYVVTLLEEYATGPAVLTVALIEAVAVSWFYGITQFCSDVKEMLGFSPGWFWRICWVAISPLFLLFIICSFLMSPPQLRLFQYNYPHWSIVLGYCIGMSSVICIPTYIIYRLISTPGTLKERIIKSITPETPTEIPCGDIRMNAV
Experimental: The supernatant was removed and re-centrifuged at 15,000 rpm for 30 min. […] Membranes were incubated with 0.6 nM [^3H]-Citalopram plus/minus test compounds for 60 min at 25° C. and harvested by rapid filtration over GF/C glass fiber filters (pretreated with 0.3% polyethylenimine) followed by four washes with ice-cold buffer.
[5] abbreviates: read-out: Rat SERT Ki, rat brain membranes without cerebellum, 0.6 nM [3H]-Citalopram, 60 min at 25° C.

pKi: −log10 of the molar value. Read-outs that look alike come from different tables or passages of the source.

T1 sequence (Q9Y5N1 whole entry): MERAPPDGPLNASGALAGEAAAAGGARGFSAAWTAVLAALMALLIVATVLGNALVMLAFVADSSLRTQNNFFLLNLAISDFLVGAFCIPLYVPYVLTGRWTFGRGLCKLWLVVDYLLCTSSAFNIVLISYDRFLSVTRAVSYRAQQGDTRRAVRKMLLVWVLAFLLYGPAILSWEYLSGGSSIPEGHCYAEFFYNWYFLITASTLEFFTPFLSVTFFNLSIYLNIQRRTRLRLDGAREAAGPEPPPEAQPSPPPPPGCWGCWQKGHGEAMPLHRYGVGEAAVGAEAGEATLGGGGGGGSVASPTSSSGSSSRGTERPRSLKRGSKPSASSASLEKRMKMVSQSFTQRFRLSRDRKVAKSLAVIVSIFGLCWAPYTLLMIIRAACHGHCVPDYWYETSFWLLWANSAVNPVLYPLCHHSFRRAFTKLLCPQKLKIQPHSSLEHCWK

As a reminder, the pKi is the negative decadic logarithm of the Ki, by convention in mol/L. Regarding `Clc1ccc(C2CNCc3cc(OCCCN4CCCCC4)ncc32)cc1Cl` (racemic) [Example 15, 4-(3,4-Dichloro-phenyl)-7-(3-piperidin-1-yl-propoxy)-1,2,3,4-tetrahydro-[2,6]-naphthyridine], in assay [1], the Kb was 12.6 nM. The pKi in assay [2] is 8.30; in assay [3] it was 7.48; in assay [4], 7.70.
For `CN1Cc2cc(OCCCN3CCCCC3)ncc2C(c2ccccc2F)C1` (centres unmarked) [Example 2, 4-(2-Fluoro-phenyl)-2-methyl-7-(3-piperidin-1-yl-propoxy)-1,2,3,4-tetrahydro-[2,6]-naphthyridine], in assay [1], the Kb was 1 nM. Moreover, the pKi in assay [2] is 8.70; in assay [3], 6.11; in assay [4] (setting [5]), 6.72.
Consider `c1ccc(C2CNCc3cc(OCCCN4CCCCC4)ncc32)cc1` (centres unmarked) [Example 4, 4-Phenyl-7-(3-piperidin-1-yl-propoxy)-1,2,3,4-tetrahydro-[2,6]naphthyridine], for which the Kb in assay [1] is 0.794 nM. The pKi is 9.00 in assay [2], 5.63 in assay [3] and 5.78 in assay [4] (setting [5]).
The Ki is a measure of affinity in units of concentration, obtained from inhibition or displacement. In the case of `COc1ccc(C2CNCc3cc(OCCCN4CCCCC4)ncc32)cc1` (centres unmarked) [Example 6, 4-(4-Methoxy-phenyl)-7-(3-piperidin-1-yl-propoxy)-1,2,3,4-tetrahydro-[2,6]-naphthyridine], the Kb in assay [1] was 6.31 nM. Moreover, the pKi in assay [2] was 8.40; in assay [3] it was 6.83. Also, affinity in assay [4] (Rat SERT Ki (nM), rat brain membranes without cerebellum, 0.6 nM [3H]-Citalopram, 60 min at 25° C.) was put at a Ki of 2280 nM.
`CCN(CC)CCCOc1cc2c(cn1)C(c1ccccc1)CN(C)C2` (centres unmarked) [Example 7, Diethyl-[3-(6-methyl-8-phenyl-5,6,7,8-tetrahydro-[2,6]naphthyridin-3-yloxy)-propyl]-amine]: the Kb in assay [1] is 0.631 nM. The results for the pKi in assay [2], in assay [3] and in assay [4] (setting [5]) were 8.40, 5.70 and 6.23, respectively.
Regarding `Fc1ccc(C2CNCc3cc(OCCCN4CCCCC4)ncc32)cc1` (centres unmarked) [Example 17, 4-(4-Fluoro-phenyl)-7-(3-piperidin-1-yl-propoxy)-1,2,3,4-tetrahydro-[2,6]naphthyridine], the Kb in assay [1] was 2.51 nM. Moreover, the pKi in assay [2] was 8.70; in assay [3], 5.99; in assay [4], 6.51.
Turning to `CN1Cc2cc(OCCCN3CCCCC3)ncc2C(c2ccc(F)cc2)C1` (centres unmarked) [Example 18, 4-(4-Fluoro-phenyl)-2-methyl-7-(3-piperidin-1-yl-propoxy)-1,2,3,4-tetrahydro-[2,6]-naphthyridine], in assay [1], the Kb is 3.98 nM. Further, the results for the negative logarithm of the Ki (pKi) in assay [2], in assay [3] and in assay [4] (setting [5]) were 8.05, 6.44 and 6.73, respectively.
As for `CCN(CC)CCCOc1cc2c(cn1)C(c1ccc(Cl)c(Cl)c1)CNC2` (centres unmarked) [Example 21, {3-[8-(3,4-Dichloro-phenyl)-5,6,7,8-tetrahydro-[2,6]naphthyridin-3-yloxy]-propyl}-diethyl-amine], the Kb in assay [1] was 15.8 nM. Further, the pKi in assay [2] was 8.15; in assay [3], 7.59; in assay [4] (setting [5]), 7.82.
The matching figures for `Clc1ccc(C2CNCc3cc(OCCCN4CCCCC4)ncc32)cc1` (centres unmarked) [Example 23, 4-(4-Chloro-phenyl)-7-(3-piperidin-1-yl-propoxy)-1,2,3,4-tetrahydro-[2,6]naphthyridine]: 3.98 nM, 8.70, 6.85 and 7.52.
The corresponding values for `Clc1ccccc1C1CNCc2cc(OCCCN3CCCCC3)ncc21` (centres unmarked) [Example 25, 4-(2-Chloro-phenyl)-7-(3-piperidin-1-yl-propoxy)-1,2,3,4-tetrahydro-[2,6]naphthyridine] are 1 nM, 9.00, 5.88 and 6.71.
`COc1ccc(C2CNCc3cc(OCC4CCN(C(C)C)CC4)ncc32)cc1` (centres unmarked) [Example 31, 7-(1-Isopropyl-piperidin-4-ylmethoxy)-4-(4-methoxy-phenyl)-1,2,3,4-tetrahydro-[2,6]-naphthyridine]: the Kb in assay [1] was 3.98 nM. The pKi was 8.40 in assay [2], 7.03 in assay [3] and 7.82 in assay [4] (setting [5]).
